# Experimental data taken from patent publication US20040204497A1, “Metabolic enhancing properties of octopamine salts” (Creative Compounds, LLC, priority 2003, published 2004).
# Structures can show the parent of a compound that is named as a salt.
# Tests used:
# [1] = Stability of octopamine forms exposed to the atmosphere (in-house results); format: physicochemical; conditions: normal atmospheric conditions; according to our calculations
# Source text: First, we have discovered that octopamine in the base form is very unstable and oxidizes rapidly when readily exposed to the atmosphere.
# For instance, although the half-life of octopamine base is roughly 6 months, the half-life for octopamine salts of this invention such as octopamine HCl is at least 5 years according to our calculations. To be used commercially for metabolic enhancement, it is of extreme importance that the octopamine form used has a shelf life long enough so that the octopamine remains filly efficacious for at least one year and preferably two years.
# [2] = Example 1: weight loss in subjects given capsules, no change of diet or exercise; format: in vivo, human; parameters: average weight loss: unit not given here; conditions: 6 mg/kg per day calculated as octopamine base; for average weight loss: capsules, divided dosages
# Experimental: Octopamine base, octopamine HCl, octopamine malate, and octopamine ethylcarbonate were prepared and given as capsules in divided dosages at 6 mg/kg per day calculated as octopamine base.
# [3] = Example 2: change in percent bodyfat and lean body mass, perceived energy and mental outlook in subjects; format: in vivo, human; conditions: for Change Percent Bodyfat / Change Percent Lean Body Mass: 6 mg/kg per day calculated as octopamine base; for Perceived Energy / Perceived Mental Outlook and Focus: subjective, scale of 1-10, 6 mg/kg per day
# Experimental: Octopamine HCl was prepared and given as capsules in divided dosages at 6 mg/kg per day calculated as octopamine base. […] Subjective results are also shown regarding perceived energy and mental outlook and focus (scale of 1-10): […]
# [4] = Metabolic potency, bioavailability and tolerability of octopamine salts versus base in users; format: in vivo, human
# Source text: Finally, we have discovered that the base form of octopamine has significant bioavailability problems. […] There is thus great need for an improvement to this technology which allows octopamine to be a commercially viable option for metabolic enhancement.
# We have found the octopamine salts of this invention are up to four times more efficient at affecting specific metabolic parameters than octopamine base.
# The octopamine salts of this invention can be commercially used in various ways as metabolic enhancers. For instance, we have found usefulness with these compounds as weight loss agents. […] Even in high dosages, the user feels no noticeable negative effect on his general feeling or overall state of well-being. Furthermore, these octopamine salts specifically enhance the loss of adipose tissue while preserving lean body mass such as muscle tissue. A significant problem for anyone trying to lose unwanted adipose tissue is the concurrent loss of lean body mass. Lean body mass includes tissues such as muscle, kidney, liver, heart and bone. For a person to feel healthy and strong, these tissues must also be healthy and strong. […]
# Human dosaging for the octopamine salts of this invention is most preferable in the range of 5-15 mg/kg of bodyweight calculated as base octopamine. […]
molecule,measurement,setting,value
NCC(O)c1ccc(O)cc1 (stereo not drawn) [Octopamine HCl],half-life,[1],≥ 1830 days
same,average weight loss,"[2]; Week 1, HCl, 6 mg/kg/day",2
same,average weight loss,"[2]; Week 4, HCl, 6 mg/kg/day",6
same,average weight loss,"[2]; Week 8, HCl, 6 mg/kg/day",9
same,Change Percent Bodyfat,[3]; Week 1,−.5%
same,Change Percent Lean Body Mass,[3]; Week 1,0%
same,Perceived Energy,[3]; Week 1,6
same,Perceived Mental Outlook and Focus,[3]; Week 1,7
same,Change Percent Bodyfat,[3]; Week 4,−2%
same,Change Percent Lean Body Mass,[3]; Week 4,+.3%
same,Perceived Energy,[3]; Week 4,8
same,Perceived Mental Outlook and Focus,[3]; Week 4,7
same,Change Percent Bodyfat,[3]; Week 8,−4%
same,Change Percent Lean Body Mass,[3]; Week 8,+1%
same,Perceived Energy,[3]; Week 8,8
same,Perceived Mental Outlook and Focus,[3]; Week 8,9
"NCC(O)c1ccc(O)cc1 (stereo not drawn) [Octopamine base, Octopamine]",minimum effective dosage relative to the octopamine salts of the invention,[4],nearly four times
same,weight loss (result in words),[2]; up to Week 8,neither the octopamine base nor the control resulted in appreciable or significant weight loss
same,average weight loss,"[2]; Week 1, 6 mg/kg/day",0
same,average weight loss,"[2]; Week 4, 6 mg/kg/day",1
same,average weight loss,"[2]; Week 8, 6 mg/kg/day",2
Octopamine ethylcarbonate,average weight loss,[2]; Week 1,2
same,average weight loss,[2]; Week 4,6
same,average weight loss,[2]; Week 8,10
Octopamine malate,average weight loss,[2]; Week 1,1
same,average weight loss,[2]; Week 4,5
same,average weight loss,[2]; Week 8,10
